Measurements from US20250281497A1, “FUSED AMINO PYRIMIDINE COMPOUNDS FOR TREATMENT OF SEIZURE DISORDERS” (Ovid Therapeutics Inc., priority 2024, published 2025).

Columns and labels:
[1] = biological target: T1, KCC2 (Homo sapiens, UniProt Q9H2X9); assay: Surface biotinylation of KCC2 in HEK-293 cells; type: cell-based; conditions: 15 min
T1 construct: expressed in transfected cells; host or cells: HEK-293 (ATCC CRL-1573)
T1 sequence (Q9H2X9 1-1116 isoform Q9H2X9-2): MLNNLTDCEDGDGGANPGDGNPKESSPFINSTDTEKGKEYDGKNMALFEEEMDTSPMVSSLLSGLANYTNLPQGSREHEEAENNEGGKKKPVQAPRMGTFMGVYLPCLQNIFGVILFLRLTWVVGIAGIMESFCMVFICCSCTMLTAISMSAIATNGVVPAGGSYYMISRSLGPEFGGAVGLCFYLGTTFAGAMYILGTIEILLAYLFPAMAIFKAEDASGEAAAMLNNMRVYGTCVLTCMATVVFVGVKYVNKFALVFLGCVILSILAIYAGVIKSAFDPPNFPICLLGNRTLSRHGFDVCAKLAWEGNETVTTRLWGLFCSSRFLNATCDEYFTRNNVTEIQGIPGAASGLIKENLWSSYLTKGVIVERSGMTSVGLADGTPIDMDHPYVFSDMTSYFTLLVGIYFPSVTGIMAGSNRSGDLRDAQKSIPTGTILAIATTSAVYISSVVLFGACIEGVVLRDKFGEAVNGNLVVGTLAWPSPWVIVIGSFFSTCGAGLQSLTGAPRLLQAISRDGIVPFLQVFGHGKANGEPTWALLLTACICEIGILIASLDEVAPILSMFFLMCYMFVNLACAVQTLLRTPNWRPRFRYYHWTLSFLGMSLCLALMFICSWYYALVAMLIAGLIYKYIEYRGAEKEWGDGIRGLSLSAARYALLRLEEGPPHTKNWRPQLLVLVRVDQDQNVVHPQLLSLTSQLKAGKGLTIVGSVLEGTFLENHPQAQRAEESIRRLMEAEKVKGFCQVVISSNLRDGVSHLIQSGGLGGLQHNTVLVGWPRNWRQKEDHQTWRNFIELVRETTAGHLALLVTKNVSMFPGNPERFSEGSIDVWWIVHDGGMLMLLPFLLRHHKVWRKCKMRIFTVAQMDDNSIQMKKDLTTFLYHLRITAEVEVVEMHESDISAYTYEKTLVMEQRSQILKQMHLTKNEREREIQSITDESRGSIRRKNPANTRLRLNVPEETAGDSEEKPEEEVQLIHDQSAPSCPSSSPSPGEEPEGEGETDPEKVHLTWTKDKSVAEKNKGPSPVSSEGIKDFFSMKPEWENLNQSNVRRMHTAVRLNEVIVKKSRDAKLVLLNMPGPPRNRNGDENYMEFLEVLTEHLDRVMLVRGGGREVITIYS
Experimental: Cell Culture and biotinylation. HEK-293 cells were purchased from ATCC (CRL-1573) and transfected with human KCC2 and GFP expression plasmids using Lipofectamine 2000. Cells were utilized for experimentation 48-72h following transfection. Cells were biotinylated at 4° C. using NHS-Biotin. Following lysis and purification on immobilized avidin beads, cell surface and total fractions were subject to immunoblotting as outlined previously (Conway et al., 2017, supra).
The reliability of the biotinylation procedure was assessed via immunoblotting with antibodies against the cytosolic protein actin. Actin was present in the total lysates but was absent from the surface fractions (FIG. 2C).

[2] = system: PTZ induced motor seizures; assay: Pentylenetetrazol (PTZ) induced convulsions; type: in vivo, mice; conditions: 12.5 mg/kg IV pretreatment
[3] = system: KA induced SE; assay: Kainic acid (KA) induced SE, EEG recording, pretreatment; type: in vivo, mice
Source text: This model was chosen due to the similarities with patients undergoing SE, as KA-induced seizures become refractory to benzodiazepines (BDZs) within minutes (Betjemann and Lowenstein, Lancet Neurol 14, 615-624 (2015); Crawshaw and Cock, (2020a) [Seizure: Eur. J. Epilep. 75 (2020) 145-152] Seizure 80, 282; Lee et at, 2022, supra; Reddy and Kuruba, Int J Mol Sci 14, 18284-18318 (2013)).
(§1) EEG recordings and analysis. WT C57Bl/6J adult male mice (12 weeks) were anesthetized with isofluorane and implanted with EEG/EMG electrodes and allowed to recover for 7 days prior to experimentation. […] 2h following KA administration mice were injected with a saturating concentration of diazepam (DZ) 10 mg/kg (IP) and recordings were extended for a further 60 min. […] LabChart 8 software was used for data analysis. Epileptiform activity was identified by changes in the amplitude of electrographic activity characterized by consistent changes in the power of the Fast Fourier transform (FFT) of the EEG and abnormal activity characterized by periods of rhythmic spiking lasting longer than 30s (Moore et al., 2017, supra; Silayeva et al., 2015, supra; Sivakumaran et al., J. Neurosci. 35, 8291-8296 (2015)).
To provide quantitative insights on the effects of KA, raw EEG recordings were subject to Fast-Fourier transformation (8K FFT size, Hann (cosine-bell), 87.50% window overlap) for frequencies between 0-100 Hz 2h after KA injection (Lee et at, 2022, supra).
30 or 60 min later mice were injected with KA (20 mg/kg) and 2h later with DZ as detailed above.

[4] = system: KA induced SE; assay: KA induced ongoing SE, EEG recording, treatment 2h after KA; type: in vivo, mice; conditions: treatment 2h after KA
Experimental: as §1
To evaluate the potential of KCC2 activators to terminate ongoing SE, the KA model described above was employed. Mice were injected with KA (20 mg/Kg; IP). […] Spectral data were then subjected to FFT and the total EEG power between 1-100 Hz of the 2h following KA treatment (pre-drug) and 30 min following their injection (post-drug) were compared (FIG. 6B). In mice treated with DZ alone variable effects were observed, from large increases to modest reductions in EEG power, but these effects were not significant (FIG. 6C; pre=1.1±0.2×10^−6, post=4.4±7.4×10^−7 μV^2, p=0.214, n=13-14 mice). […] The latency of the treatments to modify EEG power was examined by measuring the time taken for this parameter to be reduced to 50% (FIG. 6E). […] Finally in mice treated with DZ alone 62% were insensitive to the effects of this agent on EEG power.

With `C[C@@H]1CN(c2nc3c(c(Nc4ccc(C5CCCCC5)cc4)n2)COC3)CCO1` [Compound A, (R)—N-(4-cyclohexylphenyl)-2-(2-methylmorpholino)-5,7-dihydrofuro[3,4-d]pyrimidin-4-amine] the “KCC2 on the plasma membrane (surface/total)” value ([1]; 0.3 μM) was 94.5±8.4 % of control, the “KCC2 on the plasma membrane (surface/total)” value ([1]; 3 μM) was 104.7±8.4 % of control and the “dose of PTZ required to induce forelimb clonus” value ([2]; Control=51.5±3.1) was 56.3 ± 3.3 mg/kg. The “dose of PTZ required to induce hindlimb clonus” value ([2]; Control=84.5±5.1) was 137.4 ± 7.5 mg/kg, the “seizure parameters after injection directly into the hippocampus” value ([3]; 10 μM or 20 μM, 30 or 60 min before KA 20 mg/kg, relative to vehicle) was “increased the latency to the 1st seizure, to SE, and reduced the percentage of time in epileptiform activity” and the “latency to the first seizure” value ([3]; 50 mg/kg SC 2h before 20 mg/kg KA IP, vehicle=10.2±2.5) was 14.4 ± 2.9 min. For the same compound, the “latency to SE” value ([3]; 50 mg/kg SC 2h before KA, vehicle=38.3±3.4) was 54.5 ± 6.9 min, the “time spent in epileptiform activity” value ([3]; 50 mg/kg SC 2h before KA, vehicle=85±5.4) was 62.5±8.4% and the “total EEG power post DZ” value ([3]; mice pretreated with Compound A, then DZ 10 mg/kg IP 2h after KA) was 2.7±3.2×10^−7 μV^2. The “total EEG power 2h after KA (pre DZ)” value ([3]; pretreated with Compound A, vehicle 4.2±2.4×10^−6) was 6.9±3.2×10^−7 μV^2, the “development of refractory status epilepticus (RSE)” value ([3]; pretreatment, 4h later) was “prevented the development of refractory status epilepticus (RSE)” and the “mice insensitive to DZ effects on EEG power” value [4] was “abolished”.
